From US20090304692A1, “TRIAZINE COMPOUNDS AS PI3 KINASE AND MTOR INHIBITORS” (Wyeth, priority 2008, published 2009) come the findings set out here.

One assay addresses Human mTOR (FLAG-TOR) (Homo sapiens, UniProt P42345). As to the kind of experiment: mTOR kinase assay (DELFIA format, purified enzyme). The note with it: read-out: IC50 mTOR. It is filed as biochemical.
A further assay concerns the target PI3K-α (Homo sapiens, UniProt P42336). The assay can be described thus: PI3K-alpha fluorescence polarization assay. As to conditions: read-out: IC50 PI3Kα.
The target of the next assay is PI3K-γ (Homo sapiens, UniProt P48736). As to the kind of experiment: PI3K-gamma fluorescence polarization assay. The note with it: read-out: IC50 PI3Kγ. Background: In fluorescence polarisation assays a small probe gives low polarisation when free and higher when bound to something large.
Assay [1] deals with human prostate LNCap tumor cell line. The assay can be described thus: In vitro cell culture growth assay (MTS), LNCap. The note with it: Homo sapiens, LNCaP, 72 h, read-out: IC50 LNCap.

Chain of Human mTOR (FLAG-TOR) (P42345 1360-2549 limits assumed): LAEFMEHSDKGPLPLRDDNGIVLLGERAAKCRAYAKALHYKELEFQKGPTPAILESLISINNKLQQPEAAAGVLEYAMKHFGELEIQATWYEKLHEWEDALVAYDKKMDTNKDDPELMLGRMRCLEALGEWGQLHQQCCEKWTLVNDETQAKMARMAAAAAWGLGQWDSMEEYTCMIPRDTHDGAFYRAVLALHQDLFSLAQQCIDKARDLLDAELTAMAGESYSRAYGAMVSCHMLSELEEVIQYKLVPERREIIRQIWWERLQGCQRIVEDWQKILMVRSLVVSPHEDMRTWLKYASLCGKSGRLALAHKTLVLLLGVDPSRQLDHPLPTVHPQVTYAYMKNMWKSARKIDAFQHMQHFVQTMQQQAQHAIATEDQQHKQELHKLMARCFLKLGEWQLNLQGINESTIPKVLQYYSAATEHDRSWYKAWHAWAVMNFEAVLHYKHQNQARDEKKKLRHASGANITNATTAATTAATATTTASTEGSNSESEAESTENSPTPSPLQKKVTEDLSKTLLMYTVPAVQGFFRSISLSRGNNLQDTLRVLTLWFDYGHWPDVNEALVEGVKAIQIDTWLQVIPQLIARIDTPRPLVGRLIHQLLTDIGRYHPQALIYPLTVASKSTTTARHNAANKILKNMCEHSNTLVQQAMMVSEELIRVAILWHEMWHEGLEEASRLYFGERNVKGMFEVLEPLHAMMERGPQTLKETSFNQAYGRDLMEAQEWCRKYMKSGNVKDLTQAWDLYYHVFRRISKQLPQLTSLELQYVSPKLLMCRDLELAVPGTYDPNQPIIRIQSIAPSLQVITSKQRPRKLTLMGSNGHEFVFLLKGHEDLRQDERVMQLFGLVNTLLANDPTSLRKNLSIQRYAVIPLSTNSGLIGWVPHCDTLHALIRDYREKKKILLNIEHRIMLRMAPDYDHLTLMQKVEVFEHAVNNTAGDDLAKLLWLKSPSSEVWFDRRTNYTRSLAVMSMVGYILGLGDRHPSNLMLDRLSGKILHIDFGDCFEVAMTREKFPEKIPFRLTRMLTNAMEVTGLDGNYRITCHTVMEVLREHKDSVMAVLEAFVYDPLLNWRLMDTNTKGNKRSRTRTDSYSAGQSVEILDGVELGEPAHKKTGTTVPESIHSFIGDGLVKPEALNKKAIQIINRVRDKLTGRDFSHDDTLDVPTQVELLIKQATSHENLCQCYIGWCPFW
Chain of PI3K-α (P42336 whole entry, species assumed): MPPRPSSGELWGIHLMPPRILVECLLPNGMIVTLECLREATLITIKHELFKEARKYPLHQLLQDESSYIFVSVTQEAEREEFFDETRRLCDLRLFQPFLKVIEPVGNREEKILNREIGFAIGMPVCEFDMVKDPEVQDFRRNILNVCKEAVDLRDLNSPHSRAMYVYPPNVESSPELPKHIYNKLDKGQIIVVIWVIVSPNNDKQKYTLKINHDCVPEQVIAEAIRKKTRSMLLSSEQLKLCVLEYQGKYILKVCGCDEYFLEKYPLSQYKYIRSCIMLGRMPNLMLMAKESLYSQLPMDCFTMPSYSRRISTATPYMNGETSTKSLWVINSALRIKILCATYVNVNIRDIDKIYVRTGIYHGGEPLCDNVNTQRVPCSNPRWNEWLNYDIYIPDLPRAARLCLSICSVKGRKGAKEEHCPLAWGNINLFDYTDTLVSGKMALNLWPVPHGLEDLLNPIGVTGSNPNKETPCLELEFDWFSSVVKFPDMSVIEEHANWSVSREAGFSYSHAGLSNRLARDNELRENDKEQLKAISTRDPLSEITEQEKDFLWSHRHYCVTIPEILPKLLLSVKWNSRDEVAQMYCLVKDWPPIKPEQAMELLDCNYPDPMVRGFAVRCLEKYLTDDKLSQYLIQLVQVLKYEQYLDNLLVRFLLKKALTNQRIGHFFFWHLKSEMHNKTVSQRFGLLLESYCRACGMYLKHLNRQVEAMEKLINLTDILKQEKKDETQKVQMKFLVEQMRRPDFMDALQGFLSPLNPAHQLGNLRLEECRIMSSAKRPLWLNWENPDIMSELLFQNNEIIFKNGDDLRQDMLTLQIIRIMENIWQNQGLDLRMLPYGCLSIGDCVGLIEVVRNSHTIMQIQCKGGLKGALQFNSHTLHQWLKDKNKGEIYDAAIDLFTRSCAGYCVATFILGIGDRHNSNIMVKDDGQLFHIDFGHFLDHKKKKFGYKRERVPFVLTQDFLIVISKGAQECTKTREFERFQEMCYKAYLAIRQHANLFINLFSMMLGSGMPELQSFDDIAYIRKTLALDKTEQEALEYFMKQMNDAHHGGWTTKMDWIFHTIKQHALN
Chain of PI3K-α (P27986 whole entry partner, species assumed): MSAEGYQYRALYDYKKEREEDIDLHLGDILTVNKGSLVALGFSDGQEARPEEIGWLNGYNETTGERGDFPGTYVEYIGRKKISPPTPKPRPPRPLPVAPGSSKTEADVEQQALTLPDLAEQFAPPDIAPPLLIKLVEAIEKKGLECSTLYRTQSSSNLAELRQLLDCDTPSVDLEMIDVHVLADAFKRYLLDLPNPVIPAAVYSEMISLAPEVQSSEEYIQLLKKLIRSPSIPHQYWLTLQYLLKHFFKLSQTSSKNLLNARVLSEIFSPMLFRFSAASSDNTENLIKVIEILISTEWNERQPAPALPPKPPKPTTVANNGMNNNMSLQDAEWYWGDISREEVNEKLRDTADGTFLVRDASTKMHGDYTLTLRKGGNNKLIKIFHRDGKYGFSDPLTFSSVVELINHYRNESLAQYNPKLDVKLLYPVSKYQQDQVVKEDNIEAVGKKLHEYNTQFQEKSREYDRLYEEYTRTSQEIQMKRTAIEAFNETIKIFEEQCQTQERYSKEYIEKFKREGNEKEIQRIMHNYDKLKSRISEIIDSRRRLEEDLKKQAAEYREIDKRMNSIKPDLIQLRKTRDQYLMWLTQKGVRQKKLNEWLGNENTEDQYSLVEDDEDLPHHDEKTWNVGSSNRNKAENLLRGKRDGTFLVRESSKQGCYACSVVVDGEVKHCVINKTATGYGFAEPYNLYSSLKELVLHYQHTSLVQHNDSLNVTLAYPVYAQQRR
Chain of PI3K-γ (P48736 whole entry, species assumed): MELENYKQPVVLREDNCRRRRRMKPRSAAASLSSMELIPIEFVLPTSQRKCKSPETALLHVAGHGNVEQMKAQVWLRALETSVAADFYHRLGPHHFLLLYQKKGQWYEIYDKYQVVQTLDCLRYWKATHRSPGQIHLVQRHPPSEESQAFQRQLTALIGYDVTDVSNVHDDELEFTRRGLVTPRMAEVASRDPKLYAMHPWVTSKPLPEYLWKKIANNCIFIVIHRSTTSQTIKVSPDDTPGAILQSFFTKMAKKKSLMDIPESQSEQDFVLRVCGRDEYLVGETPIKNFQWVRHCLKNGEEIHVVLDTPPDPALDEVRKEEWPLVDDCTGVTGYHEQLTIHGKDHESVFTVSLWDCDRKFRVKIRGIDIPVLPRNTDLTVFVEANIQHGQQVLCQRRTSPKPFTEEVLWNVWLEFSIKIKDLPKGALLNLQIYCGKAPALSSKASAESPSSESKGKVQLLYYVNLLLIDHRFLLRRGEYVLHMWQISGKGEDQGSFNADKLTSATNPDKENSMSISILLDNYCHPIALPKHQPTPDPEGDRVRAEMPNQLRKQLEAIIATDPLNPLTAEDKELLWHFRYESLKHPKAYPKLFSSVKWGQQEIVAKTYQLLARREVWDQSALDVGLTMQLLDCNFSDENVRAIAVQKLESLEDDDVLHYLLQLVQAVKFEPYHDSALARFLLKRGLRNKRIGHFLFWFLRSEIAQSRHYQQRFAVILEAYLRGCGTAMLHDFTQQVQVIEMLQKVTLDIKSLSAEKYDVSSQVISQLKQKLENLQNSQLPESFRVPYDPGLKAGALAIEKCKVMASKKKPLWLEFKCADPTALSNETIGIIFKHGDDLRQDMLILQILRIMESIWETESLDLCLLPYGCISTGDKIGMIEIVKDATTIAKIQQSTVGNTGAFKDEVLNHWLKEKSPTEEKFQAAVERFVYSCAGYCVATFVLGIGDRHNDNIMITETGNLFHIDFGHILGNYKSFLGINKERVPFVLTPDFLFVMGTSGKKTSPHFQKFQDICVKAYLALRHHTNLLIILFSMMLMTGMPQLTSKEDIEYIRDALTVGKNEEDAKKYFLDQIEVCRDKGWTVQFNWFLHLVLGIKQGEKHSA

For `C[C@@H]1COCCN1c1nc(-c2ccc(NC(=O)Nc3ccc(C(=O)N4CCN(C)CC4)cc3)cc2)nc(N2CCOC[C@H]2C)n1` [Example 450, 1-(4-(4,6-bis((R)-3-methylmorpholino)-1,3,5-triazin-2-yl)phenyl)-3-(4-(4-methylpiperazine-1-carbonyl)phenyl)urea], the IC50 was 1.7 nM on Human mTOR (FLAG-TOR), 76 nM on PI3K-α, 888 nM at PI3K-γ and less than 0.8 nM in assay [1].
The like results for `CC(C)N1CCN(C(=O)c2ccc(NC(=O)Nc3ccc(-c4nc(N5CCOC[C@H]5C)nc(N5CCOC[C@H]5C)n4)cc3)cc2)CC1` [Example 451, 1-(4-(4,6-bis((R)-3-methylmorpholino)-1,3,5-triazin-2-yl)phenyl)-3-(4-(4-isopropylpiperazine-1-carbonyl)phenyl)urea] were, in that order, 1.4 nM, 85 nM, 702 nM and less than 0.8 nM.
With `C[C@@H]1COCCN1c1nc(-c2ccc(NC(=O)Nc3ccc(C(=O)N(C)C)cc3)cc2)nc(N2CCOC[C@H]2C)n1` [Example 452, 4-(3-(4-(4,6-bis((R)-3-methylmorpholino)-1,3,5-triazin-2-yl)phenyl)ureido)-N,N-dimethylbenzamide], the 50% inhibitory concentration (IC50) at Human mTOR (FLAG-TOR) is 0.55 nM; at PI3K-α, 41 nM; at PI3K-γ, 502 nM; in assay [1], less than 0.8 nM.
Taken in the same sequence, the figures for `C[C@@H]1COCCN1c1nc(-c2ccc(NC(=O)Nc3ccc(CN4CCCC4)cc3)cc2)nc(N2CCOC[C@H]2C)n1` [Example 453, 1-(4-(4,6-bis((R)-3-methylmorpholino)-1,3,5-triazin-2-yl)phenyl)-3-(4-(pyrrolidin-1-ylmethyl)phenyl)urea] were 3.3 nM, 659 nM, 4270 nM and 30 nM.
Consider `NC(=O)c1ccc(NC(=O)Nc2ccc(-c3nc(C4CCOCC4)nc(N4C5CCC4COC5)n3)cc2)cc1` [Example 454, 4-(3-(4-(4-(3-oxa-8-azabicyclo[3.2.1]octan-8-yl)-6-(tetrahydro-2H-pyran-4-yl)-1,3,5-triazin-2-yl)phenyl)ureido)benzamide], for which the 50% inhibitory concentration (IC50) was 0.2 nM on Human mTOR (FLAG-TOR), 278 nM on PI3K-α, 1490 nM on PI3K-γ and less than 0.8 nM in assay [1].
Consider `CN(C)C(=O)c1ccc(NC(=O)Nc2ccc(-c3nc(C4CCOCC4)nc(N4C5CCC4COC5)n3)cc2)cc1` [Example 455, 4-(3-(4-(4-(3-oxa-8-azabicyclo[3.2.1]octan-8-yl)-6-(tetrahydro-2H-pyran-4-yl)-1,3,5-triazin-2-yl)phenyl)ureido)-N,N-dimethylbenzamide], for which the IC50 is 0.3 nM at Human mTOR (FLAG-TOR), 113 nM at PI3K-α, 1390 nM at PI3K-γ and less than 0.8 nM in assay [1].
For `O=C(Nc1ccc(C(=O)N2CCCC2)cc1)Nc1ccc(-c2nc(C3CCOCC3)nc(N3C4CCC3COC4)n2)cc1` [Example 456, 1-(4-(4-(3-oxa-8-azabicyclo[3.2.1]octan-8-yl)-6-(tetrahydro-2H-pyran-4-yl)-1,3,5-triazin-2-yl)phenyl)-3-(4-(pyrrolidine-1-carbonyl)phenyl)urea], the 50% inhibitory concentration (IC50) at Human mTOR (FLAG-TOR) was 0.7 nM; on PI3K-α, 150 nM; on PI3K-γ, 1550 nM; in assay [1] it was less than 0.8 nM.
Turning to `CNCCNC(=O)c1ccc(NC(=O)Nc2ccc(-c3nc(C4CCOCC4)nc(N4C5CCC4COC5)n3)cc2)cc1` [Example 458, 4-(3-(4-(4-(3-oxa-8-azabicyclo[3.2.1]octan-8-yl)-6-(tetrahydro-2H-pyran-4-yl)-1,3,5-triazin-2-yl)phenyl)ureido)-N-(2-(methylamino)ethyl)benzamide], the IC50 at Human mTOR (FLAG-TOR) was 0.2 nM; at PI3K-α, 33 nM; at PI3K-γ it was 512 nM; in assay [1], 8 nM.
The like results for `CN(C)CCN(C)C(=O)c1ccc(NC(=O)Nc2ccc(-c3nc(C4CCOCC4)nc(N4C5CCC4COC5)n3)cc2)cc1` [Example 459, 4-(3-(4-(4-(3-oxa-8-azabicyclo[3.2.1]octan-8-yl)-6-(tetrahydro-2H-pyran-4-yl)-1,3,5-triazin-2-yl)phenyl)ureido)-N-(2-(dimethylamino)ethyl)-N-methylbenzamide] were, in that order, 0.3 nM, 26 nM, 483 nM and less than 0.8 nM.
As for `O=C(Nc1ccc(C(=O)N2CCOCC2)cc1)Nc1ccc(-c2nc(C3CCOCC3)nc(N3C4CCC3COC4)n2)cc1` [Example 460, 1-(4-(4-(3-oxa-8-azabicyclo[3.2.1]octan-8-yl)-6-(tetrahydro-2H-pyran-4-yl)-1,3,5-triazin-2-yl)phenyl)-3-(4-(morpholine-4-carbonyl)phenyl)urea], the IC50 at Human mTOR (FLAG-TOR) is 0.4 nM; on PI3K-α it was 143 nM; at PI3K-γ it was 1080 nM; in assay [1] it was less than 0.8 nM.
The like results for `NCCNc1ccc(NC(=O)Nc2ccc(-c3nc(N4C5CCC4COC5)nc(N4C5CCC4COC5)n3)cc2)cc1` [Example 461, 1-(4-(2-aminoethylamino)phenyl)-3-(4-(4,6-di(3-oxa-8-azabicyclo[3.2.1]octan-8-yl)-1,3,5-triazin-2-yl)phenyl)urea] were, in that order, 1.1 nM, 482 nM, 4420 nM and 68 nM.
`CC(C)c1nc(-c2ccc(NC(=O)Nc3ccc(-c4ccncc4)cc3)cc2)nc(N2CCOCC2)n1` [Example 489, 1-{4-[4-(1-methylethyl)-6-morpholin-4-yl-1,3,5-triazin-2-yl]phenyl}-3-(4-pyridin-4-ylphenyl)urea]: the IC50 is 2.2 nM on Human mTOR (FLAG-TOR), 3670 nM at PI3K-α, 9040 nM on PI3K-γ and 4300 nM in assay [1].
Taken in the same sequence, the figures for `CN1CCN(CC(=O)Nc2ccc(NC(=O)Nc3ccc(-c4nc(N5CC6CCC(C5)O6)nc(N5CC6CCC(C5)O6)n4)cc3)cc2)CC1` [Example 509, N-[4-({[4-(4,6-di-8-oxa-3-azabicyclo[3.2.1]oct-3-yl-1,3,5-triazin-2-yl)phenyl]carbamoyl}amino)phenyl]-2-(4-methylpiperazin-1-yl)acetamide] were 0.45 nM, 11.5 nM, 662 nM and less than 0.8 nM.
`O=C(Nc1ccncc1)Nc1ccc(-c2nc(N3CC4CCC(C3)O4)nc(N3[C@H](CO)CC[C@@H]3CO)n2)cc1` [Example 667, 1-(4-{4-[(2R,5S)-2,5-bis(hydroxymethyl)pyrrolidin-1-yl]-6-(8-oxa-3-azabicyclo[3.2.1]oct-3-yl)-1,3,5-triazin-2-yl}phenyl)-3-pyridin-4-ylurea]: the IC50 is 0.405 nM on Human mTOR (FLAG-TOR), 102 nM at PI3K-α, 1080 nM on PI3K-γ and 60 nM in assay [1].
The like results for `CN1CCN(c2ccc(NC(=O)Nc3ccc(-c4nc(N5CC6CCC(C5)O6)nc(N5[C@H](CO)CC[C@@H]5CO)n4)cc3)cc2)CC1` [Example 668, 1-(4-{4-[(2R,5S)-2,5-bis(hydroxymethyl)pyrrolidin-1-yl]-6-(8-oxa-3-azabicyclo[3.2.1]oct-3-yl)-1,3,5-triazin-2-yl}phenyl)-3-[4-(4-methylpiperazin-1-yl)phenyl]urea] were, in that order, 0.56 nM, 122 nM, 625 nM and 0.8 nM.

The term IC50 denotes the concentration that gives 50% inhibition.
